What all share (test): DTP human tumour cell line panel, 48 h
Assay [1] concerns UACC-62 melanoma.
Assay [2] has as its system SF-268 CNS.
The subject of assay [3] is LOX IMVI melanoma.
For assay [4], the system named is PC-3 prostate.
The test system of assay [5] is TK-10 renal.
In assay [6] the test system is MDA-N.
Assay [7] relates to HCC-2998 colon.
Assay [8] concerns HOP-62 NSCLC.
The test system of assay [9] is MOLT-4 leukemia.
Assay [10] deals with UACC-257 melanoma.

Values joined by “and” are separate entries in the source; they are usually repeats but may differ in a detail not shown here. Equal entries are not always repeated.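 All cell lines were grown in 96-well plates and treated with compound for 48 hours. Here, GI50 denotes the concentration required for 50% inhibition of growth. TGI denotes the concentration required for complete inhibition of growth.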

As to `Nc1nc2c(ccc3ccccc32)[nH]1`, the TGI in [1], in [2], in [3], in assay [4], in [5] and in [6] was above 10 µM each time. The concentration for total growth inhibition (TGI) in [7], in assay [8] and in assay [9] was above 10 µM in each case.
For the molecule `O=C(Nc1nc2ccc([N+](=O)[O-])cc2s1)c1cc([N+](=O)[O-])ccc1Cl`, the total growth inhibition concentration (TGI) – broadly, the concentration giving total growth inhibition – in assay [2] came to 11.7 µM; in assay [3], 5.3 µM; in [5], 32 µM; in [6] it was 5.04 µM; in [8], 10.3 µM; in assay [10], 19.2 µM. Further, the TGI in assay [9] was above 100 µM.
Regarding `CC(=O)OCc1cc2c(s1)C(=O)c1sccc1C2=O`, the concentration for total growth inhibition (TGI) in assay [1] is 0.305 µM; in [2], 0.417 µM; in assay [3], 0.0468 µM; in assay [4] it was 0.563 µM; in [5], 3.73 µM; in assay [7], 3.22 µM. In assay [10], this molecule registered a total growth inhibition concentration (TGI) of 0.244 µM.
In the case of `NS(=O)(=O)c1cc2c(cc1Cl)NC(C(=O)NNC(=O)c1ccncc1)=NS2(=O)=O`, the TGI in assay [1], in assay [2], in assay [3], in assay [5], in assay [7] and in assay [8] was above 100 µM in each case. Further, the concentration for total growth inhibition (TGI) in assay [10] and in assay [9] was above 100 µM in each case.
As for `CCCCC(C)(C/C=C/[C@@H]1[C@@H](C(O)CCCCCC(=O)OC)C(=O)C[C@H]1O[Si](C)(C)C(C)(C)C)O[Si](C)(C)C` (some centres not stated), the TGI in assay [1], in assay [2], in assay [3], in [4], in assay [5] and in assay [7] was above 100 µM each time. The TGI in [8] was above 100 µM; in assay [10], above 100 µM; in assay [9], 59.4 µM.
For the molecule `COc1ccc(Sc2ccccc2[N+](=O)[O-])cc1`, the TGI was above 100 µM in assay [1]; above 100 µM in assay [2]; above 100 µM in assay [3]; above 100 µM in [5]; 62.1 µM in assay [7]; above 100 µM in assay [8]. Also, the concentration for total growth inhibition (TGI) in assay [10] and in [9] was above 100 µM throughout.
As to `COC1=C(C)C(=O)C2=C(C1=O)C1C3CC4=C(C(=O)C(OC)=C(C)C4=O)C(CNC(=O)C(C)=O)N3C(C#N)C(C2)N1C` (configuration not stated), the GI50 (as a rule, the concentration that inhibits growth by half) in assay [1] is 0.000111 µM; in assay [3] it was 1.47e-05 µM; in assay [6], 0.00351 µM; in assay [7], 0.000219 µM; in assay [10], 5.76e-06 µM. Moreover, the concentration for total growth inhibition (TGI) in assay [1] was 0.000825 µM and 0.0075 µM; in assay [3], 8.74e-05 µM and < 0.0251 µM and < 0.0105 µM; in assay [4], 0.195 µM and 0.0778 µM; in [5], 3.76 µM; in assay [6], 0.026 µM.
In the case of `CN(C)c1ccc(/C=C2\CCCCCC2=O)cc1`, the total growth inhibition concentration (TGI) in [1], in assay [2], in [4], in [5], in [6] and in assay [7] was above 100 µM in each case. Further, the total growth inhibition concentration (TGI) in assay [8], in assay [10] and in assay [9] was above 100 µM throughout.
Consider `Cc1cc(N(CCCl)CCCl)ccc1/C=N\NC(=O)c1cccnc1`, for which the GI50 is 4.51 µM in [1]; 25.1 µM in [2]; 15.6 µM in [3]; 22.7 µM in [4]; 11.2 µM in assay [5]; 25 µM in [7]. The figures for the GI50 in assay [8], in assay [10] and in assay [9] were 19.5 µM, 6.96 µM and 8.19 µM, respectively. In addition, the total growth inhibition concentration (TGI) in assay [1] was 25.2 µM; in assay [2] it was above 100 µM; in [3], 99.4 µM; in assay [4], above 100 µM; in assay [5], 36.2 µM; in assay [7], 97.6 µM. The concentration for total growth inhibition (TGI) in [8] was above 100 µM; in [10], 34.9 µM; in assay [9], 39.2 µM.
In the case of `CNc1nc(OC)c2c(n1)[n+](C)cn2C`, the TGI in [1], in [2], in assay [3], in assay [4], in assay [5] and in assay [6] was above 100 µM in each case. For the same molecule, the TGI in assay [8], in assay [10] and in assay [9] was above 100 µM throughout.
Consider `C(/Cc1ccc2c(c1)OCO2)=N\NC1=NCCCCN1`, for which the TGI in assay [1], in assay [2], in [3], in assay [4], in [5] and in assay [7] was above 100 µM in each case. The concentration for total growth inhibition (TGI) in assay [8], in assay [10] and in assay [9] was above 100 µM throughout.
In the case of `O=C(NCc1ccc(Cl)c(Cl)c1)c1nc2ccccc2nc1NCc1ccc(Cl)c(Cl)c1`, the TGI in assay [1], in assay [2], in [3], in assay [4], in assay [5] and in assay [6] was above 100 µM each time. Moreover, the TGI in assay [7], in assay [8] and in assay [10] was above 100 µM throughout.
For the molecule `CCCCCCCCCCCC1=C(O)C(=O)C=C(O)C1=O`, the TGI in [1] was 10.5 µM; in [2], 18 µM; in [3], 38 µM; in assay [7] it was 33 µM; in assay [8], 12.3 µM; in assay [10], 16.7 µM. In assay [9], this molecule returned a TGI of 44.1 µM.
With `N#Cc1c2c(c(Nc3ccc(Cl)cc3)n3c1nc1ccccc13)CCCC2`, the total growth inhibition concentration (TGI) in assay [1], in [2], in [3], in [4], in assay [5] and in assay [7] was above 100 µM throughout. The TGI in assay [8], in assay [10] and in assay [9] was above 100 µM in each case.
For the molecule `NNC(=O)COc1nc(-c2cccs2)nc2ccc(I)cc12`, the TGI in [1] is 45.1 µM; in assay [2] it was 70.5 µM; in [3], 36.9 µM; in [4], above 100 µM; in assay [5] it was 44.8 µM; in assay [6] it was above 100 µM. In addition, the values for the total growth inhibition concentration (TGI) in assay [7], in assay [8] and in assay [9] were 63.9 µM, 75.6 µM and above 100 µM, respectively.
`CCCCCCCCCCCCCCCC(=O)OCC(COP(=O)(O)OCCNC(=O)CCSSc1ccccn1)OC(=O)CCCCCCCCCCCCCCC` (configuration not stated): the concentration for total growth inhibition (TGI) in assay [1], in assay [2], in [4], in assay [6], in assay [8] and in assay [10] was above 100 µM in each case. The molecule also came in with a TGI in assay [9] above 100 µM.
Take `COc1ccc(-c2cc(-c3ccc(Nc4ccnc5cc(C(F)(F)F)ccc45)cc3)nc(N)c2C#N)c2ccccc12`: the total growth inhibition concentration (TGI) in [1], in [2], in [3], in assay [4], in assay [5] and in [7] was above 100 µM in each case. Further, the TGI in assay [8] and in [9] was above 100 µM each time.
Regarding `FC(F)(Sc1nc2ccccc2[nH]1)c1nc2ccccc2o1`, the total growth inhibition concentration (TGI) in assay [1], in [2], in [4], in assay [5], in [6] and in [7] was above 100 µM in each case. Moreover, the TGI in [8], in [10] and in assay [9] was above 100 µM in each case.
`COc1ccc2c(C=O)c3n(c(=O)c2c1OC)CCc1cc2c(cc1-3)OCO2`: the total growth inhibition concentration (TGI) in assay [1] was above 100 µM; in assay [2], above 100 µM; in [4], above 100 µM; in assay [5], above 100 µM; in [6], above 100 µM; in assay [7], 94.1 µM. In addition, the TGI in assay [8], in assay [10] and in [9] was above 100 µM in each case.
`CC(=O)Nc1ccc(C(=O)NN2C(=O)CSC2c2ccccc2)cc1` (configuration not stated): the TGI in assay [1], in assay [2], in [5], in [6], in [7] and in assay [8] was above 100 µM each time. The TGI in assay [10] and in assay [9] was above 100 µM throughout.
In the case of `COc1cc(COC(=O)NC(Cc2cccs2)C(=O)O)c([N+](=O)[O-])cc1OC` (configuration not stated), the TGI in assay [1], in assay [2], in assay [4], in [5], in [6] and in [7] was above 100 µM each time. The concentration for total growth inhibition (TGI) in [8], in assay [10] and in [9] was above 100 µM in each case.
In the case of `COC(=O)C1CCC(=S)N1C(C)=O` (configuration not stated), the TGI in [1], in assay [2], in assay [4], in assay [5], in [6] and in [7] was above 100 µM in each case. The TGI in [8], in assay [10] and in assay [9] was above 100 µM each time.
Take `COC(=O)C1=C(C)C(=O)C2(CCCCCC2C(=O)OC)C1` (configuration not stated): the TGI in assay [1], in assay [2], in assay [5], in assay [7], in assay [8] and in [10] was above 100 µM throughout. In [9], this molecule gave a TGI above 100 µM.
Take `Cc1cccc2c1Oc1ncccc1C2NC(=O)CN(C)C` (configuration not stated): the TGI in [1], in [2], in assay [3], in assay [4], in assay [5] and in assay [7] was above 10 µM each time. For the same molecule, the TGI in assay [10] and in [9] was above 10 µM each time.
For `CCCCN1/C(=N/Nc2n[nH]c(=O)c3ccccc23)SCC1c1ccc(Cl)cc1` (configuration not stated), the concentration for total growth inhibition (TGI) in [1] was 20.7 µM; in assay [2], 43.9 µM; in assay [4] it was above 100 µM; in [5], 92.7 µM; in assay [8] it was 18.5 µM; in assay [10], 45.6 µM.
As for `Nc1nc(Nc2cc(F)c(Cl)c(F)c2)cc(=O)[nH]1`, the concentration for total growth inhibition (TGI) in assay [1] is above 100 µM; in assay [2], above 100 µM; in assay [3] it was above 100 µM; in [4], above 100 µM; in assay [5] it was above 100 µM; in assay [7] it was 61.5 µM. In addition, the TGI in assay [8], in [10] and in assay [9] was above 100 µM throughout.
With `COc1c(-c2nc3nc(N4CCN(C)CC4)ccc3[nH]2)cc(OC)c2c1nc(CCl)n2C`, the total growth inhibition concentration (TGI) in [1] was 23.1 µM; in assay [2] it was 55.7 µM; in [3] it was 24 µM; in assay [4], 28.2 µM; in assay [6], above 100 µM; in assay [7] it was 31.2 µM. Also, the results for the TGI in assay [8], in assay [10] and in [9] were 49.1 µM, 78.3 µM and 58.3 µM, respectively.
Turning to `COc1cc(CC2C(=O)OCC2Cc2ccc(OC)c(OC)c2)ccc1O` (configuration not stated), the TGI in assay [1], in assay [2], in [3], in assay [4], in assay [5] and in [6] was above 100 µM throughout. In addition, the total growth inhibition concentration (TGI) in [8] was above 100 µM; in assay [10] it was above 100 µM; in assay [9] it was above 31.7 µM.
Regarding `COc1ccc(NC(=S)Nc2cccc(C)n2)cc1`, the TGI in assay [1], in assay [2], in assay [3], in assay [4], in assay [5] and in assay [7] was above 100 µM in each case. Moreover, the total growth inhibition concentration (TGI) in [8] is 64.3 µM; in assay [10], above 100 µM; in assay [9], above 100 µM.
As for `Nc1nc(N)c2ncn(Cc3ccccc3)c2n1`, the TGI in assay [1], in assay [2], in [4], in assay [5], in assay [6] and in [7] was above 100 µM each time. For the same molecule, the TGI in assay [8], in assay [10] and in assay [9] was above 100 µM throughout.

These data come from PubChem BioAssay (NCI).
